Data from paper PMC6222787, “Anti-Inflammatory Activities of Compounds Isolated from the Rhizome of Anemarrhena asphodeloides” (Molecules : A Journal of Synthetic Chemistry and Natural …, 2018).
Where two headings read alike, the source gives them in different places.

Tests used:
[1] = system: LPS-induced NO production in N9 microglial cells; assay: LPS-induced NO production (Griess assay); type: cell-based, mouse; details: for Nitrite: control 4.60, LPS group 31.81 μM; for Nitrite / inhibition at 25 µM / inhibition at 50 µM / % Inhibition of NO Production: mean ± S.E.M.; for inhibition at 25 µM / inhibition at 50 µM: Mus musculus
Experimental: Figure 2 Inhibitory effects of TBIII (A) and t-HL (B) in LPS-stimulated N9 microglial cells. Cells were pretreated with different concentrations of TBIII and t-HL 1 h prior to the addition of LPS (100 ng/mL) and were further incubated for 24 h. NO production was determined by using the Griess reagent. IC50 values and curve fitting were determined using Graphpad Prism (GraphPad, Avenida, CA, USA).
Accumulation of nitrite, a metabolite of NO in the culture media, was measured by Griess assay as previously reported. Briefly, cells were stimulated with 100 ng/mL of LPS for 24 h in the presence of the test compounds (0–50 μM).

[2] = MTT assay for cell viability; details: mouse, N9 microglial cells, % Cell Viability, 24 h, MTT, mean ± S.E.M.; for viability at 24 h, 25 µM: 25 μM compound; for viability at 24 h, 50 µM: 50 μM compound
Experimental: (§1) The N9 microglial cell line was obtained from China Cell Line Bank. The cells were grown at 37 °C in IMDM supplemented with 10% heat-inactivated FBS under a humidified atmosphere of 5% CO2. In this experiment, cells were allowed to acclimate for 24 h before treatments.
(§2) Cell viability was evaluated by the MTT reduction assay [36]. Cells were seeded in 96-well plates at a density of 2 × 10^4 cells/well and allowed to grow for 24 h before treatments. Thereafter, 100 μL medium containing various concentrations (0–50 μM) of compounds were added and incubated for another 24 h. MTT was dissolved in DD water (5 mg/mL) and 10 μL were added to each well. After 4 h, the medium was removed and 100 μL DMSO were filled in each well. The optical density was measured at 490 nm on a Flexstation 3 (Molecular Devices, Silicon Valley, CA, USA).

[3] = system: N9 microglial cells
Experimental: as §1, §2

[4] = in vitro; details: mouse, % Cell Viability
Experimental: as §1, §2

[5] = 25 μM compound, LPS 100 ng/mL, 24 h
[6] = 50 μM compound, LPS 100 ng/mL, 24 h
[7] = N9, 24 h, 25 μM compound, LPS 100 ng/mL, 24 h, read-out: % Inhibition of NO Production
[8] = N9, 24 h, 50 μM compound, LPS 100 ng/mL, 24 h, read-out: % Inhibition of NO Production
[9] = 50 μM compound, LPS 100 ng/mL, 24 h, 50 µM
[10] = 25 μM compound, LPS 100 ng/mL, 24 h, 25 µM
[11] = N9, 24 h, read-out: % Inhibition of NO Production, 25 μM compound, LPS 100 ng/mL, 24 h
[12] = N9, 24 h, read-out: % Inhibition of NO Production, 50 μM compound, LPS 100 ng/mL, 24 h
[13] = N9, 25 μM compound, LPS 100 ng/mL, 24 h, read-out: % Inhibition of NO Production
[14] = N9, 50 μM compound, LPS 100 ng/mL, 24 h, read-out: % Inhibition of NO Production

Structure (SMILES) | Nitrite [1, 5] [µM] | Nitrite [1, 6] [µM] | inhibition at 25 µM [1, 7] [%] | inhibition at 50 µM [1, 8] [%] | viability at 24 h, 25 µM [2] [%] | viability at 24 h, 50 µM [2] [%] | also measured
C=CCOC1O[C@H](CO)[C@@H](O)[C@H](O)[C@H]1O (stereo in doubt) [Compound 26, α-D-Glucose monoallyl ether] | 29.57 ± 0.71 | 22.60 ± 2.19 | 7.13 ± 2.23 | 29 ± 8.43 | 107.2 ± 0.63 | 105 ± 16.1 | –
COc1cc(O)c(C(=O)c2ccc(O)cc2)c(O)c1 [Compound 1, 2,6,4′-trihydroxy-4-methoxybenzophenone] | 26.78 ± 1.27 | 19.29 ± 0.10 | 15.3 ± 9.4 | 41.7 ± 3.9 | 98.7 ± 8.27 | 97.5 ± 1.85 | –
COc1ccc(C(=O)c2ccc(O)cc2)c(OC2OC(CO)C(O)C(O)C2O)c1O (stereo not drawn) [Compound 2, Zimoside A] | 26.64 ± 1.13 | 21.41 ± 0.92 | 16.3 ± 3.55 | 32.8 ± 2.88 | 97.2 ± 3.27 | 94.6 ± 5.47 | –
O=C(c1ccc(O)cc1)c1c(O)cc(O)cc1O [Compound 3, Iriflophene] | 26.06 ± 1.24 | 20.41 ± 0.38 | 18.1 ± 3.88 | 35.9 ± 1.2 | 107 ± 3.62 | 113 ± 5.32 | –
CC(C)CCC1(O)OC2C(O)C3C4CCC5CC(OC6OC(CO)C(O)C(O)C6OC6OC(CO)C(O)C(O)C6O)CCC5(C)C4CCC3(C)C2C1C (stereo not drawn) [Compound 4, Anemarrhenasaponin II] | 9.52 ± 0.84 | 3.80 ± 0.53 | – | – | – | – | % Inhibition of NO Production [1, 9]: 87.98 ± 2.99 %; cytotoxicity against N9 microglial cells (in words) [3]: potent cytotoxicity; cell viability reduced to ([3]; mouse, 24 h): ≤ 60%; % Cell Viability ([3]; mouse, 24 h, 25 µM): 63.92 ± 5.98 %; % Cell Viability ([3]; mouse, 24 h, 50 µM): 8.57 ± 0.11 %
CC(C)CCC1(O)OC2C(O)C3C4CCC5CC(OC6OC(CO)C(O)C(O)C6OC6OC(CO)C(O)C(O)C6O)CCC5(C)C4CCC3(C)C2C1C (stereo not drawn) [Compound 5, Anemarrhenasaponin I] | 29.82 ± 0.24 | 19.14 ± 0.59 | – | – | – | – | % Inhibition of NO Production [1, 10]: 6.36 ± 0.76 %; % Inhibition of NO Production [1, 9]: 39.90 ± 1.85 %; cytotoxicity against N9 microglial cells (in words) [3]: not; % Cell Viability ([3]; mouse, 24 h, 25 µM): 110.42 ± 4.67%; % Cell Viability ([3]; mouse, 24 h, 50 µM): 115.47 ± 6.83%
CC(CCC1(O)OC2CC3C4CCC5CC(OC6OC(CO)C(O)C(O)C6OC6OC(CO)C(O)C(O)C6O)CCC5(C)C4CCC3(C)C2C1C)COC1OC(CO)C(O)C(O)C1O (stereo not drawn) [Compound 6, Anemarnoside B] | 40.89 ± 2.04 | 26.38 ± 2.63 | – | – | 115 ± 5.52 | 104 ± 16.5 | inhibition at 25 µM [1, 11]: -28.3 ± 6.4%; inhibition at 50 µM [1, 12]: 17.2 ± 8.26%
CC(CCC1(O)OC2CC3C4CCC5CC(OC6OC(CO)C(OC7OC(CO)C(O)C(OC8OCC(O)C(O)C8O)C7OC7OC(CO)C(O)C(O)C7O)C(O)C6O)C(O)CC5(C)C4CCC3(C)C2C1C)COC1OC(CO)C(O)C(O)C1O (stereo not drawn) [Compound 7, Hostaplantagineoside C] | 32.76 ± 0.85 | 23.52 ± 0.37 | – | – | 84.9 ± 1.82 | 79.7 ± 6.03 | inhibition at 25 µM [1, 13]: -3.57 ± 8.75%; inhibition at 50 µM [1, 14]: 25.8 ± 2.4%
CC(CCC1(O)OC2CC3C4CCC5CC(OC6OC(CO)C(OC7OC(C)C(O)C(O)C7O)C(O)C6OC6OC(C)C(O)C(O)C6O)C(O)CC5(C)C4CCC3(C)C2C1C)COC1OC(CO)C(O)C(O)C1O (stereo not drawn) [Compound 8, Tuberoside G] | 35.05 ± 0.68 | 27.65 ± 0.74 | – | – | – | – | inhibition at 25 µM [1, 11]: -10.8 ± 2.14%; inhibition at 50 µM [1, 12]: 13.2 ± 2.32%; viability at 24 h, 25 µM [4]: 113 ± 4.14%; viability at 24 h, 50 µM [4]: 99.3 ± 2.46%
COC1(CCC(C)COC2OC(CO)C(O)C(O)C2O)OC2CC3C4CC=C5CC(O)CC(OC6OC(C)C(O)C(OC7OCC(O)C(O)C7O)C6OC6OC(CO)C(O)C(O)C6O)C5(C)C4CCC3(C)C2C1C (stereo not drawn) [Compound 9, Spicatoside B] | 34.46 ± 0.41 | 24.20 ± 0.29 | – | – | – | – | inhibition at 25 µM [1, 11]: -8.22 ± 1.3%; inhibition at 50 µM [1, 12]: 24 ± 0.9%; viability at 24 h, 25 µM [4]: 99.7 ± 3.13%; viability at 24 h, 50 µM [4]: 94.3 ± 3.21%
CC1=C(CCC(C)COC2OC(CO)C(O)C(O)C2O)OC2CC3C4CCC5CC(OC6OC(CO)C(O)C(O)C6OC6OC(CO)C(O)C(O)C6O)C(O)CC5(C)C4CCC3(C)C12 (stereo not drawn) [Compound 10, Timosaponin D] | 29.22 ± 0.60 | 20.78 ± 2.00 | – | – | – | – | inhibition at 25 µM [1, 11]: 8.57 ± 1.87%; inhibition at 50 µM [1, 12]: 34.8 ± 6.27%; viability at 24 h, 25 µM [4]: 111 ± 4.39%; viability at 24 h, 50 µM [4]: 110 ± 2.57%
CC1=C(CCC(C)COC2OC(CO)C(O)C(O)C2O)OC2CC3C4CCC5CC(OC6OC(CO)C(O)C(O)C6OC6OC(CO)C(O)C(O)C6O)CCC5(C)C4CCC3(C)C12 (stereo not drawn) [Compound 12, Macrostemonoside F] | 19.64 ± 1.21 | 11.82 ± 1.03 | – | – | – | – | % Inhibition of NO Production [1, 10]: 38.33 ± 3.80 %; % Inhibition of NO Production [1, 9]: 62.89 ± 3.22 %; % Cell Viability ([3]; mouse, 24 h, 25 µM): 104.74 ± 3.16%; % Cell Viability ([3]; mouse, 24 h, 50 µM): 105.77 ± 2.84%
CC1=C(CCC(C)COC2OC(CO)C(O)C(O)C2O)OC2CC3C4CCC5CC(OC6OC(CO)C(O)C(O)C6OC6OC(CO)C(O)C(O)C6O)CCC5(C)C4CCC3(C)C12 (stereo not drawn) [Compound 13, Timosaponin C] | 24.24 ± 1.32 | 13.36 ± 0.56 | – | – | – | – | % Inhibition of NO Production [1, 10]: 23.94 ± 4.13%; % Inhibition of NO Production [1, 9]: 58.10 ± 1.75 %; inhibitory activity on NO production (in words) ([1]; compared with compound 11): much weaker inhibitory activity; % Cell Viability ([3]; mouse, 24 h, 25 µM): 109.04 ± 4.85%; % Cell Viability ([3]; mouse, 24 h, 50 µM): 97.19 ± 6.46%
C[C@@H]1O[C@@H](O[C@H]2[C@H](OC(=O)[C@]34CCC(C)(C)C[C@H]3C3=CC[C@@H]5[C@@]6(C)C[C@H](O)[C@H](O[C@@H]7O[C@H](CO)[C@@H](O)[C@H](O[C@@H]8O[C@H](CO)[C@@H](O)[C@H](O)[C@H]8O)[C@H]7O)C(CO)(CO)[C@@H]6CC[C@@]5(C)[C@]3(C)C[C@H]4O)OC[C@H](O)[C@@H]2O)[C@H](O)[C@H](O)[C@H]1O[C@@H]1OC[C@@H](O)[C@H](O[C@@H]2OC[C@](O)(CO)[C@H]2O)[C@H]1O [Compound 16, Platycodin D2] | 33.68 ± 1.44 | 24.94 ± 0.45 | -5.78 ± 4.51 | 21.7 ± 1.4 | 114 ± 4.62 | 101 ± 1.83 | –
C[C@@H]1O[C@@H](O[C@H]2[C@H](OC(=O)[C@]34CCC(C)(C)C[C@H]3C3=CC[C@@H]5[C@@]6(C)C[C@H](O)[C@H](O[C@@H]7O[C@H](CO)[C@@H](O)[C@H](O[C@@H]8O[C@H](CO)[C@@H](O)[C@H](O)[C@H]8O)[C@H]7O)[C@@](C)(CO)[C@@H]6CC[C@@]5(C)[C@]3(C)C[C@H]4O)OC[C@H](O)[C@@H]2O)[C@H](O)[C@H](O)[C@H]1O[C@@H]1OC[C@@H](O)[C@H](O[C@@H]2OC[C@](O)(CO)[C@H]2O)[C@H]1O [Compound 17, Polygalacin D2] | 31.14 ± 0.78 | 26.21 ± 0.82 | 2.25 ± 2.46 | 17.7 ± 3.14 | 97.5 ± 1.83 | 88 ± 8.92 | –
O=c1cc(-c2ccc(O)cc2)oc2cc(O)c([C@@H]3O[C@H](CO)[C@@H](O)[C@H](O)[C@H]3O)c(O)c12 [Compound 20, Isovitexin] | 28.39 ± 0.07 | 22.82 ± 0.27 | 10.2 ± 4.73 | 29.8 ± 0.6 | 135 ± 11.8 | 95.7 ± 2.75 | –
O=c1cc(-c2ccc(O)cc2)oc2c([C@@H]3O[C@H](CO)[C@@H](O)[C@H](O)[C@H]3O)c(O)cc(O)c12 [Compound 21, Vitexin] | 28.88 ± 1.38 | 17.81 ± 1.13 | – | – | 90.5 ± 2.51 | 81.8 ± 4.38 | inhibition at 25 µM [1, 13]: 9.39 ± 4.33%; inhibition at 50 µM [1, 14]: 44.1 ± 3.56%
N[C@@H](Cc1c[nH]c2ccccc12)C(=O)O [Compound 24, Tryptophan] | 30.49 ± 0.93 | 24.19 ± 0.72 | – | – | 105 ± 6.13 | 92.4 ± 8.71 | inhibition at 25 µM [1, 11]: 4.24 ± 2.92%; inhibition at 50 µM [1, 12]: 24 ± 2.27%
Nc1ncnc2c1ncn2[C@@H]1O[C@H](CO)[C@@H](O)[C@H]1O [Compound 25, Adenosine] | 27.43 ± 1.35 | 20.69 ± 1.74 | 13.9 ± 4.23 | 35.1 ± 5.47 | 81.6 ± 1.26 | 80.5 ± 6.19 | –
